Drawing on patent US7060822B1, “2-pyrazolin-5-ones” (Abbott GmbH & Co. KG, priority 1999, dated 2006), this text covers melting point for 47 molecules.

A word on the melting point: it is the temperature, or range, at which the solid turns liquid.

Structures are written as SMILES.

On to `Cc1[nH]c(C=C2C(=O)NN=C2c2cnccn2)c(C)c1C(=O)CN(C)C.Cl`, for which the melting point is > 300 °C (dec.).

`O=C1NN=C(c2cccnc2)C1=Cc1c[nH]c2ccccc12` yielded a melting point of 305 to 307 °C.

As for `O=C1NN=C(c2cccnc2)C1=Cc1cc2ccccc2[nH]1`, the melting point was 155 to 157 °C.

`O=C1NN=C(c2cccnc2)C1=Cc1c[nH]c2ncccc12`: the melting point fell in the range of 212 to 215 °C.

The molecule `Cc1cc(C)c(C=C2C(=O)NN=C2c2cccnc2)[nH]1` displayed a melting point of 235 to 238 °C.

In turn, `Cc1ccc(C=C2C(=O)NN=C2c2cccnc2)[nH]1` showed a melting point of 210 to 212 °C.

`O=C1NN=C([C@@H]2C[C@H]2c2ccccc2)C1=Cc1ccc[nH]1` (relative stereo) [Example 106, 3-(trans-2-phenylcyclopropyl)-4-[(pyrrol-2-yl)methylene]-2-pyrazolin-5-one] registered a melting point of 173 to 175 °C.

In turn, `O=C1NN=C([C@@H]2C[C@H]2c2ccccc2)C1=Cc1c[nH]c2ccccc12` (relative stereo) [Example 285, 4-[(Indol-3-yl)methylene]-3-(trans-2-phenyl-1-cyclopropyl)-2-pyrazolin-5-one] returned a melting point of 280 to 282 °C.

Regarding `Cc1cc(C=C2C(=O)NN=C2C2CC2)[nH]c1C` [Example 1, 3-Cyclopropyl-4-[(4,5-dimethylpyrrol-2-yl)methylene]-2-pyrazolin-5-one], the melting point was in the range of 220 to 222 °C.

Consider `O=C1NN=C(Cc2ccccc2)C1=Cc1ccc[nH]1` [Example 2, 3-Benzyl-4-[(pyrrol-2-yl)methylene]-2-pyrazolin-5-one], for which the melting point was 182 to 184 °C.

Take `COc1ccc(OCC2=NNC(=O)C2=Cc2ccc[nH]2)cc1` [Example 3, 3-(4-Methoxyphenyloxymethyl)-4-[(pyrrol-2-yl)methylene]-2-pyrazolin-5-one]: the melting point is 177 to 180 °C.

`O=C1NN=C(COc2ccccc2)C1=Cc1ccc[nH]1` [Example 4, 3-Phenyloxymethyl-4-[(pyrrol-2-yl)methylene]-2-pyrazolin-5-one] registered a melting point of 163 to 165 °C.

In turn, `O=C1NN=C(COc2ccc(Cl)cc2)C1=Cc1ccc[nH]1` [Example 5, 3-(4-Chlorophenyloxymethyl)-4-[(pyrrol-2-yl)methylene]-2-pyrazolin-5-one] displayed a melting point of 218 to 222 °C.

Turning to `COc1ccc(CC2=NNC(=O)C2=Cc2ccc[nH]2)cc1` [Example 6, 3-(4-Methoxybenzyl)-4-[(pyrrol-2-yl)methylene]-2-pyrazolin-5-one], the melting point lay in the range of 179 to 180 °C.

Molecule `Cc1c(CCC(=O)O)c[nH]c1C=C1C(=O)NN=C1Cc1ccccc1` [Example 7, 3-Benzyl-4-{[4-(2-carboxyethyl)-3-methylpyrrol-2-yl]methylene}-2-pyrazolin-5-one] displayed a melting point of 270 to 272 °C.

`Cc1c[nH]c(C=C2C(=O)NN=C2Cc2ccccc2)c1CCC(=O)O` [Example 8, 3-Benzyl-4-{[3-(2-carboxyethyl)-4-methylpyrrol-2-yl]methylene}-2-pyrazolin-5-one] returned a melting point of 226 to 228 °C.

Regarding `Cc1ccc(OCC2=NNC(=O)C2=Cc2ccc[nH]2)cc1` [Example 9, 3-(4-Methylphenyloxymethyl)-4-[(pyrrol-2-yl)methylene]-2-pyrazolin-5-one], the melting point lay in the range of 207 to 210 °C.

Turning to `CC(C)OC1=NNC(=O)C1=Cc1ccc[nH]1` [Example 11, 3-Isopropoxy-4-[(pyrrol-2-yl)methylene]-2-pyrazolin-5-one], the melting point lay in the range of 172 to 174 °C.

On to `O=C1NN=C(CCc2ccccc2)C1=Cc1ccc[nH]1` [Example 12, 3-Phenylethyl-4-[(pyrrol-2-yl)methylene]-2-pyrazolin-5-one], for which the melting point fell in the range of 145 to 147 °C.

`O=C1NN=C(Nc2ccccc2)C1=Cc1ccc[nH]1` [Example 13, 3-Phenylamino-4-[(pyrrol-2-yl)methylene]-2-pyrazolin-5-one]: the melting point was in the range of 285 to 287 °C.

`Cc1ccc(CC2=NNC(=O)C2=Cc2ccc[nH]2)cc1` [Example 14, 3-(4-Methylbenzyl)-4-[(pyrrol-2-yl)methylene]-2-pyrazolin-5-one] returned a melting point of 254 to 255 °C.

Take `Cc1ccc(NC2=NNC(=O)C2=Cc2ccc[nH]2)cc1` [Example 15, 3-(4-Methylphenylamino)-4-[(pyrrol-2-yl)methylene]-2-pyrazolin-5-one]: the melting point fell in the range of 256 to 258 °C.

As to `COc1ccc(NC2=NNC(=O)C2=Cc2ccc[nH]2)cc1` [Example 16, 3-(4-Methoxyphenylamino)-4-[(pyrrol-2-yl)methylene]-2-pyrazolin-5-one], the melting point fell in the range of 288 to 290 °C.

`O=C1NN=C(Cc2ccc(Cl)cc2)C1=Cc1ccc[nH]1` [Example 17, 3-(4-Chlorobenzyl)-4-[(pyrrol-2-yl)methylene]-2-pyrazolin-5-one] showed a melting point of 178 to 180 °C.

`O=C1NN=C(Nc2ccc(Cl)cc2)C1=Cc1ccc[nH]1` [Example 18, 3-(4-Chlorophenylamino)-4-[(pyrrol-2-yl)methylene]-2-pyrazolin-5-one] displayed a melting point of 245 to 247 °C.

The molecule `O=C1NN=C(COc2cccc(Cl)c2)C1=Cc1ccc[nH]1` [Example 19, 3-(3-Chlorophenyloxymethyl)-4-[(pyrrol-2-yl)methylene]-2-pyrazolin-5-one] showed a melting point of 165 to 167 °C.

In turn, `O=C1NN=C(c2c[nH]c3ccccc23)C1=Cc1ccc[nH]1` [Example 20, 3-(Indol-3-yl)-4-[(pyrrol-2-yl)methylene]-2-pyrazolin-5-one] had a melting point of 300 to 305 °C.

Turning to `COc1cccc(CC2=NNC(=O)C2=Cc2ccc[nH]2)c1` [Example 21, 3-(3-Methoxybenzyl)-4-[(pyrrol-2-yl)methylene]-2-pyrazolin-5-one], the melting point lay within 169 to 171 °C.

Molecule `COc1ccc(CC2=NNC(=O)C2=Cc2ccc[nH]2)cc1OC` [Example 22, 3-(3,4-Dimethoxybenzyl)-4-[(pyrrol-2-yl)methylene]-2-pyrazolin-5-one] registered a melting point of 164 to 165 °C.

`COc1ccc(CCC2=NNC(=O)C2=Cc2ccc[nH]2)cc1` [Example 23, 3-(4-Methoxyphenylethyl)-4-[(pyrrol-2-yl)methylene]-2-pyrazolin-5-one]: the melting point fell in the range of 137 to 139 °C.

Molecule `O=C1NN=C(COc2ccc(-c3ccccc3)cc2)C1=Cc1ccc[nH]1` [Example 24, 3-(4-Phenylphenyloxymethyl)-4-[(pyrrol-2-yl)methylene]-2-pyrazolin-5-one] had a melting point of 192 to 194 °C.

The molecule `CC(CC1=NNC(=O)C1=Cc1ccc[nH]1)c1ccccc1` (centres unmarked) [Example 25, 3-(2-Phenylpropyl)-4-[(pyrrol-2-yl)methylene]-2-pyrazolin-5-one] showed a melting point of 130 to 131 °C.

In turn, `O=C1NN=C(CCCc2ccccc2)C1=Cc1ccc[nH]1` [Example 26, 3-(3-Phenylpropyl)-4-[(pyrrol-2-yl)methylene]-2-pyrazolin-5-one] returned a melting point of 169 to 170 °C.

For the molecule `O=C1NN=C(CCc2ccc(O)cc2)C1=Cc1ccc[nH]1` [Example 27, 3-(4-Hydroxyphenylethyl)-4-[(pyrrol-2-yl)methylene]-2-pyrazolin-5-one], the melting point was in the range of 253 to 255 °C.

`Cc1cc(C)c(C=C2C(=O)NN=C2CCc2ccccc2)[nH]1` [Example 28, 4-[(3,5-Dimethylpyrrol-2-yl)methylene]-3-phenylethyl-2-pyrazolin-5-one] returned a melting point of 186 to 187 °C.

With `Cc1ccc(CCC2=NNC(=O)C2=Cc2ccc[nH]2)cc1` [Example 29, 3-(4-Methylphenylethyl)-4-[(pyrrol-2-yl)methylene]-2-pyrazolin-5-one], the melting point is 153 to 154 °C.

`Cc1cc(C)c(C=C2C(=O)NN=C2OC(C)C)[nH]1` [Example 30, 4-[(3,5-Dimethylpyrrol-2-yl)methylene]-3-isopropoxy-2-pyrazolin-5-one] displayed a melting point of 176 to 177 °C.

In turn, `CCOC1=NNC(=O)C1=Cc1ccc[nH]1` [Example 31, 3-Ethoxy-4-[(pyrrol-2-yl)methylene]-2-pyrazolin-5-one] came in with a melting point of 211 to 213 °C.

Molecule `O=C1NN=C(CCc2ccc([N+](=O)[O-])cc2)C1=Cc1ccc[nH]1` [Example 32, 3-(4-Nitrophenylethyl)-4-[(pyrrol-2-yl)methylene]-2-pyrazolin-5-one] came in with a melting point of 224 to 226 °C.

`O=C1NN=C(Nc2ccc(F)cc2)C1=Cc1ccc[nH]1` [Example 33, 3-(4-Fluorophenylamino)-4-[(pyrrol-2-yl)methylene]-2-pyrazolin-5-one] registered a melting point of 272 to 273 °C.

With `O=C1NN=C(CCc2ccc(Cl)cc2)C1=Cc1ccc[nH]1` [Example 34, 3-(4-Chlorophenylethyl)-4-[(pyrrol-2-yl)methylene]-2-pyrazolin-5-one], the melting point lay within 193 to 194 °C.

In turn, `Cc1cc(C=C2C(=O)NN=C2OC(C)C)[nH]c1C` [Example 35, 4-[(4,5-Dimethylpyrrol-2-yl)methylene]-3-isopropoxy-2-pyrazolin-5-one] yielded a melting point of 195 to 197 °C.

`CCc1c(C)[nH]c(C=C2C(=O)NN=C2OC(C)C)c1C` [Example 36, 4-[(3,5-Dimethyl-4-ethylpyrrol-2-yl)methylene]-3-isopropoxy-2-pyrazolin-5-one] displayed a melting point of 188 to 190 °C.

In turn, `CCc1c(C)[nH]c(C=C2C(=O)NN=C2CCc2ccccc2)c1C` [Example 37, 4-[(3,5-Dimethyl-4-ethylpyrrol-2-yl)methylene]-3-phenylethyl-2-pyrazolin-5-one] yielded a melting point of 168 to 170 °C.

`CC(C)OC1=NNC(=O)C1=Cc1cccn1CCCCO` [Example 38, 4-{[1-(4-Hydroxybutyl)pyrrol-2-yl]methylene}-3-isopropoxy-2-pyrazolin-5-one] registered a melting point of 138 to 140 °C.

`O=C1NN=C(OC2CCCC2)C1=Cc1ccc[nH]1` [Example 39, 3-Cyclopentyloxy-4-[(pyrrol-2-yl)methylene]-2-pyrazolin-5-one] registered a melting point of 201 to 203 °C.

With `Cc1c[nH]c(C=C2C(=O)NN=C2OC(C)C)c1` [Example 41, 3-Isopropoxy-4-[(4-methylpyrrol-2-yl)methylene]-2-pyrazolin-5-one], the melting point fell in the range of 215 to 217 °C.
